# What was measured:
# Test in all cases: relative viability (nuclei count vs DMSO), 5 days (fraction); higher = more cells survive
# [1] = compound: C1=CC=C(C(=C1)C2=CC=C(C=C2)C3=CSC4=C3C(=C(C(=O)N4)C#N)O)O + Cc1nc(Nc2ncc(C(=O)Nc3c(C)cccc3Cl)s2)cc(N2CCN(CCO)CC2)n1 [Dasatinib] (partner 0.075 µM)
# Procedure, shortened: (§1)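 Cells from lung cancer lines were seeded into 1536-well plates and, one day later, dosed by pin tool. Treatments were either a single drug or a fixed dose of an anchor drug with five library-drug doses (not always all listed) in √10 steps. After 5 days, nuclei were stained in a one-step fixation (final 0.05% Triton X-100, 1% formaldehyde, 1 ug/ml Hoechst) and counted on 4× images, and relative viability is the treated-to-vehicle nuclei ratio, as the median of duplicate plates.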
# [2] = compound: CC1=CN2C(=O)C=C(N=C2C(=C1)C(C)NC3=CC=CC=C3)N4CCOCC4 [TGX 221] + CC(=O)c1c(C)c2cnc(Nc3ccc(N4CCNCC4)cn3)nc2n(C2CCCC2)c1=O [Palbociclib] (partner 0.5 µM)
# Procedure, shortened: as §1
# [3] = compound: CC1=CN2C(=O)C=C(N=C2C(=C1)C(C)NC3=CC=CC=C3)N4CCOCC4 [TGX 221] + CC1(C)CCC(c2ccc(Cl)cc2)=C(CN2CCN(c3ccc(C(=O)NS(=O)(=O)c4ccc(N[C@H](CCN5CCOCC5)CSc5ccccc5)c(S(=O)(=O)C(F)(F)F)c4)cc3)CC2)C1 [Navitoclax] (partner 0.5 µM)
# Procedure, shortened: as §1
# [4] = compound: CC1=CN2C(=O)C=C(N=C2C(=C1)C(C)NC3=CC=CC=C3)N4CCOCC4 [TGX 221] + Nc1nc2[nH]cc(CCc3ccc(C(=O)N[C@@H](CCC(=O)O)C(=O)O)cc3)c2c(=O)[nH]1 [Pemetrexed] (partner 0.2 µM)
# Procedure, shortened: as §1
Cell Line,relative viability ([1]; first compound 0.08 µM),relative viability ([1]; first compound 0.253 µM),relative viability ([1]; first compound 0.8 µM),relative viability ([1]; first compound 2.53 µM),relative viability ([1]; first compound 8 µM),relative viability ([2]; first compound 0.08 µM),relative viability ([2]; first compound 0.253 µM),relative viability ([2]; first compound 0.8 µM),relative viability ([2]; first compound 2.53 µM),relative viability ([2]; first compound 8 µM),relative viability ([3]; first compound 0.08 µM),relative viability ([3]; first compound 0.253 µM),relative viability ([3]; first compound 0.8 µM),relative viability ([3]; first compound 2.53 µM),relative viability ([3]; first compound 8 µM),relative viability ([4]; first compound 0.08 µM),relative viability ([4]; first compound 0.253 µM),relative viability ([4]; first compound 0.8 µM),relative viability ([4]; first compound 2.53 µM),relative viability ([4]; first compound 8 µM)
NCI-H1734,0.396,0.474,0.452,0.489,0.455,0.235,0.332,0.351,0.317,0.289,0.809,0.747,0.784,0.698,0.765,0.459,0.399,0.414,0.436,0.395
NCI-H1975,0.327,0.369,0.345,0.333,0.37,0.532,0.558,0.629,0.452,0.526,1.03,1.13,0.989,0.903,0.805,0.306,0.26,0.293,0.297,0.273
NCI-H1793,0.356,0.354,0.419,0.4,0.326,0.282,0.277,0.271,0.273,0.223,0.405,0.328,0.286,0.283,0.176,0.667,0.64,0.754,0.604,0.68
NCI-H1650,0.253,0.393,0.349,0.322,0.318,0.305,0.298,0.294,0.257,0.191,1.23,1.14,1.27,1.04,0.456,0.394,0.408,0.324,0.336,0.28
NCI-H1651,0.386,0.371,0.436,0.378,0.26,0.525,0.465,0.505,0.489,0.44,0.977,0.964,0.948,0.734,0.733,0.54,0.628,0.438,0.517,0.586
NCI-H1437,0.32,0.363,0.344,0.456,0.371,0.294,0.317,0.324,0.276,0.295,1.05,1.07,1.11,1.07,0.893,0.347,0.294,0.357,0.329,0.259
SK-MES-1,0.391,0.334,0.309,0.274,0.359,0.304,0.336,0.308,0.287,0.323,1.17,1.05,1.13,1.05,0.996,0.932,0.925,0.948,0.842,0.693
NCI-H647,0.153,0.189,0.191,0.183,0.1,0.296,0.297,0.283,0.232,0.275,1.08,0.781,0.943,0.88,0.622,0.15,0.162,0.18,0.163,0.146
LK-2,–,0.269,0.276,0.28,0.253,0.647,0.612,0.621,0.673,0.833,0.98,0.84,0.81,0.996,0.948,0.232,0.279,0.219,0.275,0.247
LU99A,0.528,0.608,0.61,0.563,0.442,0.383,0.344,0.373,0.405,0.366,0.647,0.756,0.824,0.799,0.811,0.198,0.173,0.173,0.232,0.133
NCI-H520,0.193,0.179,0.258,0.202,0.212,0.156,0.139,0.146,0.166,0.132,1.24,0.944,1.03,0.756,0.648,0.592,0.459,0.476,0.457,0.358
HCC-78,0.354,0.388,0.327,0.363,0.239,–,0.428,0.464,0.397,0.435,0.654,0.665,–,0.457,0.487,0.827,0.928,0.771,0.877,0.921
NCI-H1666,0.6,0.858,0.987,0.903,0.722,0.679,0.599,0.638,0.667,0.674,0.935,0.759,0.749,0.844,0.927,0.783,0.852,0.839,0.802,0.856
EKVX,0.47,0.724,0.671,0.621,0.403,0.313,0.418,0.358,0.329,0.299,0.926,0.869,0.866,0.908,0.758,0.404,0.356,0.34,0.375,0.395
HARA,0.241,0.228,0.346,0.292,0.192,0.264,0.28,0.268,0.232,0.246,1.18,1.13,1.03,1.13,1.11,0.216,0.234,0.258,0.3,0.221
A-427,0.645,0.67,0.716,0.658,0.619,0.542,0.546,0.513,0.504,0.516,1.05,0.976,0.949,0.935,0.803,0.992,0.987,0.963,0.989,0.953
NCI-H2087,0.67,0.878,0.969,0.925,0.703,0.214,0.234,0.237,0.21,0.248,0.989,0.898,1.06,0.945,0.952,0.745,0.637,0.582,0.663,0.672
NCI-H460,0.37,0.406,0.485,0.577,0.506,0.101,0.179,0.159,0.228,0.168,1.04,1.02,1.24,1.19,1.07,0.0673,0.0618,0.0662,0.0757,0.0781
PC-14,0.244,0.261,0.272,0.27,0.239,0.539,0.408,0.543,0.577,0.397,0.951,1,0.961,1.01,0.926,0.135,0.125,0.134,0.145,0.118
NCI-H2009,0.322,0.267,0.322,0.302,0.29,0.216,0.191,0.118,0.175,0.166,1.13,1.16,1.17,1.02,0.927,0.943,1.06,1.08,1.1,0.938
COR-L 105,0.337,0.301,0.272,0.302,0.309,0.417,0.4,0.332,0.473,0.41,0.97,0.613,0.842,0.799,0.558,1.1,1.08,0.857,1,0.81
NCI-H1993,0.619,0.701,0.596,0.544,0.549,0.54,0.607,0.54,0.519,0.459,0.761,0.848,0.884,0.831,0.82,0.567,0.545,0.632,0.604,0.246
NCI-H1395,0.382,0.368,0.45,0.381,0.421,0.609,0.537,0.51,0.467,0.487,1.02,0.907,0.986,0.957,0.763,0.73,0.766,0.709,0.604,0.724
SW 1573,0.498,0.618,0.662,0.666,0.369,0.299,0.313,0.39,0.341,0.343,0.814,0.811,0.926,0.821,0.753,0.781,0.788,0.807,0.789,0.725
BEN,0.287,0.284,0.312,0.318,0.318,0.483,0.413,0.439,0.487,0.503,0.0671,0.0617,0.0682,0.0659,0.0557,0.728,0.715,0.727,0.645,0.775
RERF-LC-KJ,0.765,0.889,0.854,0.771,0.657,1.06,0.979,1.09,0.905,0.914,–,0.78,0.913,0.8,1.14,0.479,0.471,0.484,0.465,0.475
UMC-11,0.328,0.432,0.573,0.524,0.374,0.299,0.328,0.306,0.338,0.374,0.352,0.304,0.337,0.283,0.259,0.677,0.717,0.788,0.815,0.823

# Source: the supplement of paper PMC10307832
